# Experimental data reported in US7396645B1, “Cholestasis signature” (priority 2002, dated 2008).
# Read-outs that look alike come from different tables or passages of the source. Marks after values point to notes of the source that are not given here.
# Experiments:
# male Sprague-Dawley rats = conditions: rat
# Source text: Compound dosing was based on the acute dose LD50s recorded in published reference or literature sources. […] The MTD (maximum tolerated dose) was then selected as the dose at which the animals […] 5-10% body weight during the 5-day range finding study. […] In addition, the clinical observations must show no or mild clinical signs during the whole of the range-finding study. At the next highest dose, signs and symptoms of adverse effects and exceeding those of the MTD should be seen to occur. Should these criteria not be met, the range-finding study is repeated using a modified dose range.
# (§1) After determination of the MTD and FED for a compound, each compound was dissolved in a vehicle for administration on day 1 of the study (additional daily doses were stored as frozen aliquots from this initial formulation). Each compound was administered to three individual male Sprague-Dawley rats for each of the two doses (MTD and FED) for one of four different times (0.25 day, 1 day, 3 days, and 5 days), yielding a total of up to 24 animals per compound study. Vehicle choice was based on solubility of the compound, effect of food on adsorption, and the vehicles used in the literature reports examined during the FED selection investigations, described above. Generally, the route and vehicle in which the FED was defined are used. When there was a choice of routes and vehicles, oral routes were chosen over injection routes. Many compounds, especially oncolytics, are only administerable intravenously. In such cases, the compound was administered as an intravenous formulation into the tail vein. Orally administered compounds were given dissolved in either water, 1% carboxymethycellulose (CMC) or corn oil. Intravenously and intraperitoneally administered compounds were given in 0.9% saline. Subcutaneously administered compounds were given in corn oil. Animal body weights were determined at 1 day and, where appropriate, at 4 days, before necropsy, and clinical observations were made on a daily basis. Control animals were dosed with vehicle only. Three male animals were used for each dose and time combination used for the compound treatment.
# (§2) Tissue Harvest and Handling: After the allocated treatment time, the tissues from the animals were harvested. […] All the tissues collected were divided to provide samples for histopathological analyses, and the remainder of each tissue was then snap-frozen. […] The parameters were measured using a Hitachi-911 clinical chemistry analysis instrument according to the manufacturer's instructions. The following blood constituents were measured: Blood Urea Nitrogen (BUN), Creatinine (CRE), Glucose (GLU), Alanine Transaminase (ALT), Aspartate Aminotrans-ferase (AST), Alkaline Phosphatase (ALP), Total Bilirubin (TBI), Sodium (SOD), Potassium (POT), Chloride (CHL), Phosphorus (PHO), Total Protein (TPR), Albumin (ALB), Cholesterol (CHO), Creatine Phosphokinase (CPK), Lactate Dehydrogenase (LDH), Carbon Dioxide (CO2), Uric Acid (UA), and Lipase. […] The parameters were measured using a Baker 9000 blood cell analysis instrument according to the manufactures instructions. The following blood constituents were measured: Leukocyte count (WBC), Differential Leukocyte counts, Erythrocyte count (RBC), Hemoglobin concentration (HGB), Hematocrit (HCT), Mean Corpuscular Volume (MCV), Mean Corpuscular Hemoglobin (MCH), Mean Corpuscular Hemoglobin Concentration (MCC), Thrombocyte Count (PLC). Histopathology: Histopathological analyses of hematoxylin and eosin-stained tissue sections were performed and peer-reviewed by board-certified (Diplomate, American College of Veterinary Pathologists) veterinary pathologists.
# Cholestasis Signature = system: Cholestasis Signature
# Method: as §1
# as §2, with “pathologists. Preparation of Enriched mRNA: Punch Biopsies were Taken from the Frozen Tissues and were completely homogenized before being processed using the MagNA Pure robot. (Roche Diagnostics Corp., Indianapolis, Ind.) in combination with the MagNA Pure LC RNA Isolation kit II (Roche Diagnostics Corp). The amount of lysis buffer was adjusted to allow 1 ml per 50 mg for liver tissue, or 1 ml per 80 mg for all other tissues. After complete homogenization and before loading of the samples into the 32-well MagNA Pure plate, the samples were syringed 5-6 times using a 20-gauge 3-ml syringe to ensure a smooth solution for robotic processing. Tissue sample processing was performed in duplicate wells (loading 150 μl of homogenized sample and 150 μl of additional lysis buffer to each well) of the MagNA Pure LC, which is programmed to extract mRNA using oligo-dT selection technology into a final elution volume of 100 μl.” for “pathologists.”
# livers of rats = conditions: for bile duct hyperplasia: in most animals
# Method: as §1
# as §2, with “pathologists. Preparation of Enriched mRNA: Punch Biopsies were Taken from the Frozen Tissues and were completely homogenized before being processed using the MagNA Pure robot. (Roche Diagnostics Corp., Indianapolis, Ind.) in combination with the MagNA Pure LC RNA Isolation kit II (Roche Diagnostics Corp). The amount of lysis buffer was adjusted to allow 1 ml per 50 mg for liver tissue, or 1 ml per 80 mg for all other tissues. After complete homogenization and before loading of the samples into the 32-well MagNA Pure plate, the samples were syringed 5-6 times using a 20-gauge 3-ml syringe to ensure a smooth solution for robotic processing. Tissue sample processing was performed in duplicate wells (loading 150 μl of homogenized sample and 150 μl of additional lysis buffer to each well) of the MagNA Pure LC, which is programmed to extract mRNA using oligo-dT selection technology into a final elution volume of 100 μl.” for “pathologists.”
# [1] = 81 mg/kg orally in corn oil, 5 days, vs vehicle control, average of 3 animals
# [2] = rat liver histopathology, training-set treatments
# [3] = rat liver expression data vs Cholestasis Signature, maximum score of training treatments normalised to 100, dose and time not given
# [4] = 16 mg/kg orally in corn oil, 3 days, vs vehicle control, average of 3 animals
# [5] = 386 mg/kg orally in corn oil, 3 days, vs vehicle control, average of 3 animals
smiles,measurement,setting,value
"CC(C)c1c(C(=O)Nc2ccccc2)c(-c2ccccc2)c(-c2ccc(F)cc2)n1CC[C@@H](O)C[C@@H](O)CC(=O)O (relative stereo) [ATORVASTATIN, (R—(R*,R*))-2-(4-fluorophenyl)-β,δ-dihydroxy-5-(1-methylethyl)-3-phenyl-4-((phenylamino)carbonyl)-1H-pyrrole-1-heptanoic acid]",raised serum levels of ALP and TBI compared with vehicle-treated control animals,"male Sprague-Dawley rats; in vivo, po",at least 2 fold
same,Sequence Projection Score (SPS),"Cholestasis Signature; rat, in vivo",62*
"Nc1ccc(Cc2ccc(N)cc2)cc1 [4,4′-DIAMINODIPHENYLMETHANE, 4,4′-diaminodiphenylmethane]",Fold change in serum alkaline phosphatase,male Sprague-Dawley rats; [1],1.6 fold
same,Fold change in serum alkaline phosphatase and total bilirubin,male Sprague-Dawley rats; [1],7.7 fold
same,Fold change in serum total bilirubin,male Sprague-Dawley rats; [1],4.9 fold
same,bile duct hyperplasia,livers of rats; [2],moderate
same,Sequence Projection Score (SPS),Cholestasis Signature; [3],77**
"O=NN(CCCl)C(=O)NCCCl [CARMUSTINE, 1,3-bis(2-chloroethyl)-1-nitrosourea]",Fold change in serum alkaline phosphatase,male Sprague-Dawley rats; [4],1.7 fold
same,Fold change in serum alkaline phosphatase and total bilirubin,male Sprague-Dawley rats; [4],8.1 fold
same,Fold change in serum total bilirubin,male Sprague-Dawley rats; [4],4.6 fold
same,increased hepatocyte enlargement and increased eosinophilic granular cytoplasm,livers of rats; [2],mild to severe
same,nuclear/cytoplasmic condensation (apoptosis) and/or necrosis in liver,livers of rats; [2],mild to moderate
same,bile duct hyperplasia,livers of rats; [2],moderate
same,Sequence Projection Score (SPS),Cholestasis Signature; [3],69*
"Clc1ccccc1C(c1ccccc1)(c1ccccc1)n1ccnc1 [CLOTRIMAZOLE, 1-(o-chloro-α,α-diphenylbenzyl)imidazole]",raised serum levels of ALP and TBI compared with vehicle-treated control animals,"male Sprague-Dawley rats; in vivo, po",at least 2 fold
same,Fold change in serum alkaline phosphatase,"male Sprague-Dawley rats; in vivo, po, 178 mg/kg",1.4 fold
same,Fold change in serum alkaline phosphatase and total bilirubin,"male Sprague-Dawley rats; in vivo, po, 178 mg/kg",2.9 fold
same,Fold change in serum total bilirubin,"male Sprague-Dawley rats; in vivo, po, 178 mg/kg",2.0 fold
same,nuclear/cytoplasmic condensation (apoptosis) and/or necrosis in liver,"livers of rats; rat, in vivo",mild to moderate
same,steatosis,"livers of rats; rat, in vivo",moderate to very severe
same,Sequence Projection Score (SPS),"Cholestasis Signature; rat, in vivo",33*
"CC/C(=C(/CC)c1ccc(O)cc1)c1ccc(O)cc1 [DIETHYLSTILBESTROL, 3,4-bis-(4-hydroxyphenyl)-3-hexene]",raised serum levels of ALP and TBI compared with vehicle-treated control animals,"male Sprague-Dawley rats; in vivo, po",at least 2 fold
same,Fold change in serum alkaline phosphatase,"male Sprague-Dawley rats; in vivo, po, 300 mg/kg",2.0 fold
same,Fold change in serum alkaline phosphatase and total bilirubin,"male Sprague-Dawley rats; in vivo, po, 300 mg/kg",11.5 fold
same,Fold change in serum total bilirubin,"male Sprague-Dawley rats; in vivo, po, 300 mg/kg",5.8 fold
same,increased hepatocyte enlargement and increased eosinophilic granular cytoplasm,"livers of rats; rat, in vivo",mild to severe
same,nuclear/cytoplasmic condensation (apoptosis) and/or necrosis in liver,"livers of rats; rat, in vivo",mild to moderate
same,Sequence Projection Score (SPS),"Cholestasis Signature; rat, in vivo",34*
CCO [ETHANOL],raised serum levels of ALP and TBI compared with vehicle-treated control animals,"male Sprague-Dawley rats; in vivo, po",at least 2 fold
same,Fold change in serum alkaline phosphatase,"male Sprague-Dawley rats; in vivo, po, 3000 mg/kg",1.5 fold
same,Fold change in serum alkaline phosphatase and total bilirubin,"male Sprague-Dawley rats; in vivo, po, 3000 mg/kg",3.1 fold
same,Fold change in serum total bilirubin,"male Sprague-Dawley rats; in vivo, po, 3000 mg/kg",2.0 fold
same,steatosis,"livers of rats; rat, in vivo",moderate to very severe
"Cc1ccc(C)c(OCCCC(C)(C)C(=O)O)c1 [GEMFIBROZIL, 5-(2,5-dimethylphenoxy)-2,2-dimethylpentanoic acid]",raised serum levels of ALP and TBI compared with vehicle-treated control animals,"male Sprague-Dawley rats; in vivo, po",at least 2 fold
same,Fold change in serum alkaline phosphatase,"male Sprague-Dawley rats; in vivo, po, 700 mg/kg",2.1 fold
same,increased hepatocyte enlargement and increased eosinophilic granular cytoplasm,"livers of rats; rat, in vivo",mild to severe
same,nuclear/cytoplasmic condensation (apoptosis) and/or necrosis in liver,"livers of rats; rat, in vivo",mild to moderate
same,Sequence Projection Score (SPS),"Cholestasis Signature; rat, in vivo",28*
"Clc1ccc(COC(Cn2ccnc2)c2ccc(Cl)cc2Cl)c(Cl)c1 (stereo not drawn) [MICONAZOLE, 1-[2,4-dichloro-β-(2,4-dichlorobenzyloxy)phenethyl]imidazole nitrate]",increased hepatocyte enlargement and increased eosinophilic granular cytoplasm,livers of rats; [2],mild to severe
same,Sequence Projection Score (SPS),Cholestasis Signature; [3],100**
"c1ccc2c(c1)Nc1ccccc1S2 [PHENOTHIAZINE, 2,3:5,6-dibenzo-1,4-thiazine]",Fold change in serum alkaline phosphatase,male Sprague-Dawley rats; [5],−1.1 fold
same,Fold change in serum alkaline phosphatase and total bilirubin,male Sprague-Dawley rats; [5],3.4 fold
same,Fold change in serum total bilirubin,male Sprague-Dawley rats; [5],3.7 fold
same,steatosis,livers of rats; [2],moderate to very severe
same,Sequence Projection Score (SPS),Cholestasis Signature; [3],49*
Nc1nc2nc[nH]c2c(=S)[nH]1 [THIOGUANINE],Sequence Projection Score (SPS),"Cholestasis Signature; rat, in vivo",19
